Test results from patent US4440784A, “Anti-inflammatory, analgesic, and antipyretic pharmaceutical composition” (Kanegafuchi Chemical Industry Company, Ltd., priority 1981, dated 1984).
Read-outs that look alike come from different tables or passages of the source.

How the values were obtained:
[1] = tested on: acetic acid-induced writhing in mice; experiment: acetic acid-induced writhing in mice (analgesic activity); assay type: in vivo, male ddY strain mice; details: po
Experimental: An analgesic activity was evaluated by the method of acetic acid-induced writhing in mice [R. Koster et al., Federation Proc., 18, 412 (1959)]. Ten male ddY strain mice weighing 20~25 g were used in each group. Test compounds suspended in 2.5% acacia were administered p.o. to the mice. One hour later, the mice were injected i.p. with 0.6% acetic acid in a volume of 0.1 ml/10 g body weight. The number of writhes in each of mice was counted for 20 minutes after the injection of the acetic acid. Percent inhibition was calculated by the following equation. [formula]

[2] = toxicity test in mice (LD50); details: in vivo, po; mouse, 14 days observation
Experimental: Female ICR strain mice weighing 20~25 g in groups of six each were used for toxicity tests. Test compounds suspended in 2.5% acacia were administered p.o. to the mice. The animals were observed daily for 14 days after the administration. The LD50 values were estimated from mortality (No. of dead mice/No. of mice used).

[3] = tested on: yeast-induced fever in rats; experiment: yeast-induced fever in rats (antipyretic activity); assay type: in vivo, male Wistar strain rats; details: po; for inhibition in vivo at 100 mg/kg / inhibition in vivo at 50 mg/kg: rat, p.o.; for inhibition in vivo at 5 mg/kg: Rattus norvegicus
Experimental: Five male Wistar strain rats weighing 150~180 g were used in each group. A 20% Baker's yeast suspension in 0.9% NaCl was injected s.c. into the dorsal region of rats in a volume of 1 ml/100 g body weight. […] The rectal temperature was determined with a thermometer, 1, 3 and 5 hours after the administration of test compounds. Percent inhibition was calculated by the following equation. [formula]

[4] = tested on: carrageenan-induced paw edema in rats; experiment: carrageenan-induced paw edema in rats (acute anti-inflammatory activity); assay type: in vivo, male Wistar strain rats; details: po; for inhibition in vivo at 50 mg/kg / inhibition in vivo at 100 mg/kg: rat, p.o.; for inhibition in vivo at 5 mg/kg: Rattus norvegicus
Experimental: (1) An acute anti-inflammatory activity was evaluated by the method of carrageenan-induced paw edema in rats [C. A. Winter et al., Proc. Soc. […] Six male Wistar strain rats weighing 150~180 g were used in each group. […] The volume of each paw edema was measured 3 and 5 hours after the injection of carrageenan. Percent edema inhibition was calculated by the following equation. [formula]

[5] = tested on: adjuvant-induced arthritis in rats; experiment: adjuvant-induced arthritis in rats (chronic anti-inflammatory activity); assay type: in vivo, male Sprague-Dawley strain rats; details: rat, p.o. once daily
Experimental: (3) A chronic anti-inflammatory activity was evaluated by the method of adjuvant-induced arthritis in rats [D. T. Walz et al., J. Pharmacol. and Exp. Ther., 178, 223 (1971)]. Eight male Sprague-Dawley strain rats weighing 190~230 g were used in each group. Into the left hind paw of rats was injected i.d. 0.5 mg of Mycobacterium butyricum suspended in 0.05 ml of paraffin oil. Test compounds suspended in 2.5% acacia were administered p.o. once daily for 21 days, starting on the day of the injection of an adjuvant (day 0). Paw volumes of adjuvant-injected and uninjected feet were measured on day 14 and on day 21. Percent inhibition was calculated by the following equation. [formula]

[6] = tested on: paper disk-induced granuloma in rats; experiment: paper disk-induced granuloma in rats (sub-chronic anti-inflammatory activity); assay type: in vivo, male Wistar strain rats; details: rat, p.o. once daily for 7 days
Experimental: Six male Wistar strain rats weighing 150~180 g were used in each group. Each paper disk (29±1 mg) was implanted s.c. into the bilateral area of the scapula of rats under anesthesia with amobarbital sodium. […] The rats were killed on day 7, at which time the paper disks with surrounding granulomatous tissues were removed and dried to constant weight overnight, and weighed. Percent inhibition was calculated by the following equation. [formula]

[7] = Mus musculus, read-out: Inhibition (writhing)
[8] = 1 hour after administration, read-out: Inhibition (fever), 1 hour
[9] = 3 hours after administration, read-out: Inhibition (fever), 3 hours
[10] = 5 hours after administration, read-out: Inhibition (fever), 5 hours
[11] = mouse, p.o., 100 mg/kg, 1 hour before acetic acid i.p., read-out: Inhibition (writhing)
[12] = 3 hours after carrageenan, read-out: Percent edema inhibition, 3 hours
[13] = 5 hours after carrageenan, read-out: Percent edema inhibition, 5 hours

Row | Compound | LD50 at 336 h [2] [mg/kg] | inhibition in vivo at 100 mg/kg [3, 8] [%] | inhibition in vivo at 100 mg/kg [3, 9] [%] | inhibition in vivo at 100 mg/kg [3, 10] [%] | inhibition in vivo at 100 mg/kg [1, 11] [%] | inhibition in vivo at 50 mg/kg [4, 12] [%] | inhibition in vivo at 50 mg/kg [4, 13] [%] | also measured
1 | CC(=O)Oc1ccccc1C(=O)O [Aspirin, reference compound] |  |  |  |  |  |  |  | inhibition in vivo at 100 mg/kg [1, 7]: 38%
2 | CC(C)(C)c1cc(C=C(CCO)C(=O)O)cc(C(C)(C)C)c1O [Compound I, β-Carboxy-β-(2-hydroxyethyl)-3,5-di-tert-butyl-4-hydroxystyrene] | > 1000 | 53.1 | 98.9 | 70.3 | 74.5 | 44.6 | 41.6 | 
3 | COC(=O)C(=Cc1cc(C(C)(C)C)c(O)c(C(C)(C)C)c1)CCO [Compound II, β-Methoxycarbonyl-β-(2-hydroxyethyl)-3,5-di-tert-butyl-4-hydroxystyrene] | > 1000 | 42.5 | 64.5 | 59.7 | 79.8 | 52.1 | 41.7 | 
4 | CCC(=Cc1cc(C(C)(C)C)c(O)c(C(C)(C)C)c1)C(=O)O [Compound III, β-Carboxy-β-ethyl-3,5-di-tert-butyl-4-hydroxystyrene] | > 1000 | 14.6 | 31.8 | 19.5 | 28.2 | 12.1 | 18.3 | 
5 | CCOC(=O)C(=Cc1cc(C(C)(C)C)c(O)c(C(C)(C)C)c1)C(C)=O [Compound IV, β-Ethoxycarbonyl-β-acetyl-3,5-di-tert-butyl-4-hydroxystyrene] | > 1000 | 23 | 40.9 | 41.6 | 56.9 | 30.3 | 28.4 | 
6 | CC(C)(C)c1cc(C=C(C#N)C(N)=O)cc(C(C)(C)C)c1O [Compound IX, β-Carbamoyl-β-cyano-3,5-di-tert-butyl-4-hydroxystyrene] | > 1000 | 35.4 | 77.3 | 87 | 50.7 | 40.8 | 34.2 | Inhibition, injected foot, Day 14 ([5]; 12.5 mg/kg/day): 33.3%; Inhibition, injected foot, Day 21 ([5]; 12.5 mg/kg/day): 46.1%; Inhibition, uninjected foot, Day 14 ([5]; 12.5 mg/kg/day): 70.3%; Inhibition, uninjected foot, Day 21 ([5]; 12.5 mg/kg/day): 42.6%; Inhibition, injected foot, Day 14 ([5]; 50 mg/kg/day): 31.6%; Inhibition, injected foot, Day 21 ([5]; 50 mg/kg/day): 29.6%; Inhibition, uninjected foot, Day 14 ([5]; 50 mg/kg/day): 40.5%; Inhibition, uninjected foot, Day 21 ([5]; 50 mg/kg/day): 42.6%; Inhibition (granuloma) ([6]; 25 mg/kg/day): 27.0%; Inhibition (granuloma) ([6]; 100 mg/kg/day): 25.0%
7 | CC(=O)C(C)=Cc1cc(C(C)(C)C)c(O)c(C(C)(C)C)c1 [Compound VI, β-Acetyl-β-methyl-3,5-di-tert-butyl-4-hydroxystyrene] | > 1000 | 38.1 | 45.5 | 41.6 | 47.8 | 32.5 | 20.7 | 
8 | CC(C)(C)c1cc(C=CC(=O)c2ccccc2)cc(C(C)(C)C)c1O [Compound VII, β-Benzoyl-3,5-di-tert-butyl-4-hydroxystyrene] | > 1000 | 15.9 | 27.7 | 21.4 | 33 | 16.9 | 19.7 | 
9 | CC(C)(C)c1cc(C=CC(N)=O)cc(C(C)(C)C)c1O [Compound VIII, β-Carbamoyl-3,5-di-tert-butyl-4-hydroxystyrene] | > 1000 | 19.9 | 25.9 | 16.9 | 25.8 | 17.6 | 14.6 | 
10 | CC(C)(C)c1cc(C=C[N+](=O)[O-])cc(C(C)(C)C)c1O [Compound X, β-Nitro-3,5-di-tert-butyl-4-hydroxystyrene] | > 1000 | 18.6 | 30.5 | 23.4 |  | 11 | 17.3 | inhibition in vivo at 100 mg/kg [1, 7]: 24.4%
11 | CC(C)(C)c1cc(C=C(C#N)S(C)(=O)=O)cc(C(C)(C)C)c1O [Compound XI, β-Methylsulfonyl-β-cyano-3,5-di-tert-butyl-4-hydroxystyrene] | 250 to 500 |  |  |  |  | 35.1 | 18.3 | inhibition in vivo at 50 mg/kg [3, 8]: 23.2%; inhibition in vivo at 50 mg/kg [3, 9]: 31.2%; inhibition in vivo at 50 mg/kg [3, 10]: 19.9%; inhibition in vivo at 50 mg/kg ([1]; mouse, p.o., 50 mg/kg, 1 hour before acetic acid i.p.): 31.6%
12 | CC(C)Cc1ccc(C(C)C(=O)O)cc1 (centres unmarked) [Ibuprofen, reference compound] |  |  |  |  |  |  |  | Inhibition, injected foot, Day 14 ([5]; 12.5 mg/kg/day): -2.6%; Inhibition, injected foot, Day 21 ([5]; 12.5 mg/kg/day): -17.4%; Inhibition, uninjected foot, Day 14 ([5]; 12.5 mg/kg/day): 13.5%; Inhibition, uninjected foot, Day 21 ([5]; 12.5 mg/kg/day): -7.4%; Inhibition, injected foot, Day 14 ([5]; 50 mg/kg/day): -1.7%; Inhibition, injected foot, Day 21 ([5]; 50 mg/kg/day): 28.7%; Inhibition, uninjected foot, Day 14 ([5]; 50 mg/kg/day): 32.4%; Inhibition, uninjected foot, Day 21 ([5]; 50 mg/kg/day): 44.4%
13 | COc1ccc2c(c1)c(CC(=O)O)c(C)n2C(=O)c1ccc(Cl)cc1 [Indomethacin, reference compound] |  |  |  |  |  |  |  | inhibition in vivo at 5 mg/kg ([3]; 1 h, read-out: Inhibition (fever), 1 hour): 35.4%; inhibition in vivo at 5 mg/kg ([3]; 3 h, read-out: Inhibition (fever), 3 hours): 56.4%; inhibition in vivo at 5 mg/kg ([3]; 5 h, read-out: Inhibition (fever), 5 hours): 66.2%; inhibition in vivo at 5 mg/kg [1, 7]: 62.7%; inhibition in vivo at 5 mg/kg ([4]; 3 h, read-out: Percent edema inhibition, 3 hours): 32.8%; inhibition in vivo at 5 mg/kg ([4]; 5 h, read-out: Percent edema inhibition, 5 hours): 39.2%; Inhibition (granuloma) ([6]; 1.25 mg/kg/day): 14.0%; Inhibition (granuloma) ([6]; 5 mg/kg/day): 25.5%
14 | CCCCC1C(=O)N(c2ccccc2)N(c2ccccc2)C1=O [Phenylbutazone, reference compound] |  |  |  |  |  |  |  | inhibition in vivo at 100 mg/kg [4, 12]: 23.6%; inhibition in vivo at 100 mg/kg [4, 13]: 28.9%; Inhibition (granuloma) ([6]; 25 mg/kg/day): 5.6%; Inhibition (granuloma) ([6]; 100 mg/kg/day): 24.2%
